The target in series [1] is T1, c-Met (Homo sapiens, UniProt P08581). The series is described as follows: Inhibition of c-Met kinase phosphorylation in MKN-45 cells (cell based ELISA). Particulars: 1 h. Also on record: endogenous in cells; host or cells: MKN-45. Here is the method:
Inhibition of c-Met Kinase Phosphorylation in MKN-45 Cells:
MKN45 cells are a prototype of “c-Met addicted” cells having constitutively activated c-Met kinase similar to that observed in sub-sects of gastric or hepatocellular cancer patients with dysregulated c-Met kinase activity. Inhibition of Met phosphorylation was determined using a cell based ELISA assay according to the following schedule:
Day 1: MKN-45 cells were plated in 96-well plates in complete growth medium.
Day 2: Inhibitors at the desired concentration were added to the plates and incubated for 1 h and lysed subsequently.
Lysates were transferred to NUNC Maxisorp plates coated with anti-cMet receptor antibody. Phopho-tyrosine mAb and HRP-lined anti-mouse IgG were used as primary and secondary antibodies respectively. Optical density was measured on a microplate reader (BMG Labtech., Germany) at […]. Inhibition of c-Met phosphorylation in this cell line indicates a therapeutic potential for test compounds in patients diagnosed with cancers caused by aberrant c-Met kinase signalling.
A general note: ELISA stands for enzyme-linked immunosorbent assay.

A further series concerns MKN-45 cells. As to the kind of experiment: Inhibition of MKN-45 proliferation (MTT). It counts as cell-based, human. The essentials: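 Viability measured by MTT dye reduction on day 5 after compound addition on day 2 to MKN-45 gastric adenocarcinoma cells (high Met expression) seeded on day 1 in complete medium.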
The next series addresses Met kinase (Homo sapiens, UniProt P08581). As to the kind of experiment: MET kinase assay (colorimetric determination of c-Met kinase activity, HTScan Met Kinase Assay Kit). It counts as biochemical. Also on record: purchased Cell Signalling Technology, Beverly, Mass. Particulars: for pIC50: c-Met kinase. The source says: 1. MET Kinase Assay Protocol:
Colorimetric Determination of c-Met Kinase Activity
The receptor tyrosine kinase c-Met is a heterodimeric transmembrane glycoprotein involved in several cellular processes that aid in tumor progression. Phosphorylation of the tyrosine residues in the c-Met kinase domain is critical for its activity and the resulting down-stream effects. The colorimetric assay allows detection of the phosphorylated form of a biotinylated peptide upon activation of human recombinant Met kinase.
MET Kinase Assay Protocol:
c-Met Kinase activity shall be determined using an HTScan® Met Kinase Assay Kit (Cell Signalling Technology, Beverly, Mass.) with modifications. All incubations are carried out at room temperature. Briefly, 12.5 μl of a 4× reaction cocktail (DTT/Kinase buffer containing appropriate quantity of human Met kinase) is added to each well of a 96-well plate containing 12.5 μl pre-diluted compound of interest and incubated for 5 minutes. After the initial incubation, 25 μl/well of 2×ATP/biotinylated peptide is added and incubated for an additional 30 minutes. The reaction is terminated by the addition of 50 μl/well stop buffer (50 mM EDTA, pH 8.0). The reaction mixture (25 μl/well) is then transferred to a streptavidin coated plate (Perkin Elmer, Cat#4009-0010) containing 75 μl dH2O and incubated for 60 minutes. The plate is washed with 200 μl/well wash buffer (1×PBS, 0.05% Tween-20). After washing, 100 μl/well phospho-tyrosine mAb (1:1000 in wash buffer containing 1% BSA) is added and incubated for 60 minutes. After another round of washes, 100 μl/well europium labelled anti-mouse IgG (1:500 in wash buffer containing 1% BSA) is added and incubated for an additional 30 minutes. Following additional washes, 100 μl/well Delfia® enhancement solution (Perkin Elmer, Cat#1244-105) is added and incubated for 45 minutes. Florescence is measured on a microplate reader (BMG Labtech., Germany) at 340 nm (excitation) and 615 nm (emission) for calculating % inhibition. Data generated can be analyzed further using Graphpad Prism (Graphpad software, San Diego Calif.) for determination of IC50.

In series [2] the target is T1, c-Met. As to the kind of experiment: Inhibition of c-Met kinase phosphorylation in NCI-H441 cells (cell based ELISA). Also on record: endogenous in cells; host or cells: NCI-H441. The settings on record: 1 h. Here is the method: Inhibition of c-Met Kinase Phosphorylation in NCI—H441 Cells:
Inhibition of Met phosphorylation was determined using a cell based ELISA assay according to the following schedule:
Day 1: NCI—H441 cells were plated in 96-well plates in complete growth medium.
Day 2: Inhibitors at the desired concentration were added to the plates, incubated for 1 h and lysed subsequently. Lysates were transferred to NUNC Maxisorp plates coated with anti-cMet receptor antibody. Phopho-tyrosine mAb and HRP-lined anti-mouse IgG were used as primary and secondary antibodies respectively. Optical density was measured on a microplate reader (BMG Labtech., Germany) at […].

In a further series the test system is Akt. As to the kind of experiment: Inhibition of Akt phosphorylation in NCI-H441 cells (western blot, pAkt S473). It counts as cell-based. Particulars: Homo sapiens. The procedure:
Inhibition of Akt Phosphorylation in MKN-45 or NCI-11441 Cells:
Akt is a serine-threonine kinase and a downstream marker regulated by c-Met kinase via the PI3K pathway. Once phosphorylated, Akt regulates several end processes including cell survival and growth. Cells were treated with 0−1000 nM of test compounds, lysed, and the proteins separated on a 10% SDS-PAGE. Following separation, proteins were transferred onto a nitrocellulose membrane and detected by chemiluminescence after incubation with pAkt S473 mAb (primary) and rabbit anti-mouse Ab (secondary). Intensity of the bands was determined using ImageJ 1.42q (NIH, USA) and normalized to Actin (loading control).

[3] abbreviates: Homo sapiens, MKN-45, MKN-45 proliferation.
The mark [4] stands for this setting: Homo sapiens, MKN-45, MKN-45 proliferation, 0.1 μM.

pIC50: −log10 of the molar value.

The term pIC50 denotes the negative decadic logarithm of the IC50, by convention in mol/L. Read a high pIC50 as a small IC50. What is called GI50 is the concentration at which growth is held to half of that of the control. High values mean lower sensitivity of the cells, low ones greater sensitivity of the cells. The melting point is the temperature, or range, at which the solid turns liquid. Broadly, the inhibition is the percentage by which the read-out fell short of the control. As usually defined, the IC50 is the concentration needed to halve the response being measured. A low value points to greater potency.

Met kinase, sequence (P08581 25-1390): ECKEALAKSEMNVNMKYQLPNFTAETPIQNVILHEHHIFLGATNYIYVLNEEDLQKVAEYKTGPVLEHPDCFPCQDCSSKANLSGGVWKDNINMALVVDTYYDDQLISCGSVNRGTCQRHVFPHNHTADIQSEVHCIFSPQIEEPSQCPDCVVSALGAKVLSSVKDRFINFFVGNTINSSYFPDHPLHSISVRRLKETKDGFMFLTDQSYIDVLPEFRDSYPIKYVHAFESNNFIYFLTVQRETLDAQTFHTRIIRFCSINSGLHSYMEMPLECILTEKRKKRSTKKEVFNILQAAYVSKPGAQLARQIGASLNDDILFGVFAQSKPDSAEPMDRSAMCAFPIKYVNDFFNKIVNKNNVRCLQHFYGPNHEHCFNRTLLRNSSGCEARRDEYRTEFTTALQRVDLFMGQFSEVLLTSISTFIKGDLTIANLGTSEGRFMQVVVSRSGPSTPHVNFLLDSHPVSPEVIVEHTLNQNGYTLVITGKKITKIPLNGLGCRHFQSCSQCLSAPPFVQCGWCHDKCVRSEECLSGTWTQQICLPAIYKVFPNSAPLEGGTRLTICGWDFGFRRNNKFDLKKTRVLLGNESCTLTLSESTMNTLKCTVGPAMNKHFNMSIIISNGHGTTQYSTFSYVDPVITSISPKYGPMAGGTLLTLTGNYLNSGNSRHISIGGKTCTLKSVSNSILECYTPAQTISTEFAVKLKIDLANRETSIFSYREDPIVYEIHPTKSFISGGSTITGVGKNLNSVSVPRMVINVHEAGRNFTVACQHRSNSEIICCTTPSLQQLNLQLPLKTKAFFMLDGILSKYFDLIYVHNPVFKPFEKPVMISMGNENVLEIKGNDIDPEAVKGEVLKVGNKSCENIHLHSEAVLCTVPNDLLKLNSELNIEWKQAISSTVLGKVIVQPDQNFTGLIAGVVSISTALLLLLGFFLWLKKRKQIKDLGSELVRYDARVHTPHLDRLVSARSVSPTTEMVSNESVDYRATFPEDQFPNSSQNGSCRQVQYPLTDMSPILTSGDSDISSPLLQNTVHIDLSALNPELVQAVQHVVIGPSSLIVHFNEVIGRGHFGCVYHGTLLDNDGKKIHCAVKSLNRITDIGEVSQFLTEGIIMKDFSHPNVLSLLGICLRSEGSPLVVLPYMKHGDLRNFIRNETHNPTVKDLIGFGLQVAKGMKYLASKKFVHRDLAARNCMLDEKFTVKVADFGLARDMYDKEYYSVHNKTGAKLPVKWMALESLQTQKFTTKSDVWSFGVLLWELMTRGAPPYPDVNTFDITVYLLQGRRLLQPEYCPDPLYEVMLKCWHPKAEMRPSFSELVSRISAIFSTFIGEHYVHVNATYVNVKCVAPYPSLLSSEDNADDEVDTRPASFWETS
T1 sequence (P08581 25-1390): as above

As to `CCNC(=O)c1ccc(-c2ccc3nnn(Cc4ccc5ncccc5c4)c3n2)cc1F` [Ex43], the pIC50 against c-Met [1] is 6.82 to 7.30. In the series with MKN-45 cells (setting [3]), this compound yielded a GI50 not above 50 nM.

Consider `COc1cccc(-c2ccc3nnn(Cc4ccc5ncccc5c4)c3n2)c1` [Ex 2, 6-((5-(3-Methoxyphenyl)-3H-[1,2,3]triazolo[4,5-b]pyridin-3-yl)methyl)quinoline], for which the melting point was in the range of 133 to 135 °C. The compound also registered a 50% growth inhibitory concentration (GI50) in the series with MKN-45 cells (setting [3]) of more than 1000 nM. In addition, at Met kinase, the inhibition at 1 µM lay in the range of 75 to 100% and the pIC50 is 7.00 to 7.30.

Regarding `OCc1ccc(-c2ccc3nnn(Cc4ccc5ncccc5c4)c3n2)cc1` [Ex 6, (4-(3-(quinolin-6-ylmethyl)-3H-[1,2,3]triazolo[4,5-b]pyridin-5-yl)phenyl)methanol], the melting point was in the range of 187 to 189 °C. Also, in the series with MKN-45 cells (setting [3]), the GI50 fell in the range of 150 to 500 nM. On Met kinase, this compound had an inhibition at 1 µM of 75 to 100% and a negative logarithm of the IC50 (pIC50) of 7.00 to 7.30.

On to `O=C(O)c1ccc(-c2ccc3nnn(Cc4ccc5ncccc5c4)c3n2)cc1` [Ex 8, 4-(3-(quinolin-6-ylmethyl)-3H-[1,2,3]triazolo[4,5-b]pyridin-5-yl)benzoic acid], for which the melting point lay within 245 to 247 °C. Further, in the series on MKN-45 cells (setting [3]), the concentration for 50% growth inhibition (GI50) is more than 1000 nM. At Met kinase, this compound showed an inhibition at 1 µM of 75 to 100% and a pIC50 of 7.00 to 7.30.

In the case of `CNC(=O)c1ccc(-c2ccc3nnn(Cc4ccc5ncccc5c4)c3n2)cc1` [Ex 9, N-Methyl-4-(3-(quinolin-6-ylmethyl)-3H-[1,2,3]triazolo[4,5-b]pyridin-5-yl)benzamide], the melting point was in the range of 220 to 222 °C. The pIC50 against c-Met [1] is 6.82 to 7.30. Further, the GI50 in the series on MKN-45 cells (setting [3]) was 50 to 150 nM. Moreover, on Met kinase, the inhibition at 1 µM was in the range of 75 to 100% and the pIC50 was 7.00 to 7.30.

Compound `O=C(O)c1ccc(-c2ccc3nnn(Cc4ccc5ncccc5c4)c3n2)cc1F` [Ex 13, 2-Fluoro-4-(3-(quinolin-6-ylmethyl)-3H-[1,2,3]triazolo[4,5-b]pyridin-5-yl)benzoic acid] displayed a melting point of 254 to 257 °C. Further, on Met kinase, the inhibition at 1 µM was 75 to 100% and the pIC50 was 7.00 to 7.30.

`CNC(=O)c1ccc(-c2ccc3nnn(Cc4ccc5ncccc5c4)c3n2)cc1F` [Ex 14, 2-Fluoro-N-methyl-4-(3-(quinolin-6-ylmethyl)-3H-[1,2,3]triazolo[4,5-b]pyridin-5-yl)benzamide]: the melting point was 212 to 214 °C. On c-Met [1], the pIC50 is 6.82 to 7.30. This compound also showed a GI50 with MKN-45 cells (setting [3]) of 50 to 150 nM. The pIC50 against c-Met [2] is 7.30 to 8.00. For the same compound, on Met kinase, the inhibition at 1 µM lay within 75 to 100% and the pIC50 is 6.60 to 7.00.

As for `OCc1ccc(-c2ccc3nnn(Cc4ccc5ncccc5c4)c3n2)cc1F` [Ex 16, (2-Fluoro-4-(3-(quinolin-6-ylmethyl)-3H-[1,2,3]triazolo[4,5-b]pyridin-5-yl)phenyl)methanol], the melting point lay within 202 to 204 °C. On c-Met [1], this compound showed a pIC50 not below 7.30. Further, the GI50 in the series on MKN-45 cells (setting [3]) is not above 50 nM. On Met kinase, this compound had an inhibition at 1 µM of 75 to 100% and a pIC50 of 7.00 to 7.30.

Regarding `NC(=O)c1ccc(-c2ccc3nnn(Cc4ccc5ncccc5c4)c3n2)cc1` [Ex 21, 4-(3-(quinolin-6-ylmethyl)-3H-[1,2,3]triazolo[4,5-b]pyridin-5-yl)benzamide], the melting point was 229 to 231 °C. This compound displayed a GI50 in the series on MKN-45 cells (setting [3]) of 150 to 500 nM. On Met kinase, this compound gave an inhibition at 1 µM of 50 to 75% and a pIC50 of 6.00 to 6.60.

Turning to `O=C(NC1CC1)c1ccc(-c2ccc3nnn(Cc4ccc5ncccc5c4)c3n2)cc1F` [Ex 46, N-Cyclopropyl-2-fluoro-4-(3-(quinolin-6-ylmethyl)-3H-[1,2,3]triazolo[4,5-b]pyridin-5-yl)benzamide], the pIC50 on c-Met [1] was 6.82 to 7.30. Further, the GI50 in the series on MKN-45 cells (setting [3]) was not above 50 nM.

Take `NC(=O)c1ccc(-c2ccc3nnn(Cc4cc5cccnc5cc4F)c3n2)cc1F` [Ex 137, 2-Fluoro-4-(3-((7-fluoroquinolin-6-yl)methyl)-3H-[1,2,3]triazolo[4,5-b]pyridin-5-yl)benzamide]: the figures for the pIC50 at c-Met [1], at c-Met [2] and against Met kinase were not below 7.30, not below 8.00 and not below 7.30, respectively. Further, the GI50 in the series on MKN-45 cells (setting [3]) was not above 50 nM. In the series on MKN-45 cells (setting [4]), this compound came in with an inhibition at 0.1 µM of 75 to 100%. The “% inhibition @ 1 uM” value in the series with MKN-45 cells (MKN-45 proliferation, 1 μM) is on record as “B (B = ≥50-<75%)”. The inhibition at 1 µM against Met kinase is 75 to 100%.

The compound `Cl.NC(=O)c1c(F)cc(-c2ccc3nnn(Cc4ccc5ncccc5c4)c3n2)cc1F` [Ex 139, 2,6-Difluoro-4-(3-(quinolin-6-ylmethyl)-3H-[1,2,3]triazolo[4,5-b]pyridin-5-yl)benzamide hydrochloride] showed an inhibition at 1 µM in the series with MKN-45 cells (Homo sapiens, MKN-45, MKN-45 proliferation, 1 μM) of less than 25%. The “Inhibition (% Inhibition of MKN-45 proliferation)” value with MKN-45 cells (MKN-45 proliferation, 0.1 μM) is “B (B = ≥50-<75%)”. Also, at c-Met [2], the negative logarithm of the IC50 (pIC50) is not below 8.00.

Regarding `OCCn1cc(-c2ccc3nnn(Cc4ccc5ncccc5c4)c3n2)cn1` [Ex 146, 2-(4-(3-(Quinolin-6-ylmethyl)-3H-[1,2,3]triazolo[4,5-b]pyridin-5-yl)-1H-pyrazol-1-yl)ethanol], the pIC50 against c-Met [1] is 6.82 to 7.30; at c-Met [2], 7.00 to 7.30. The 50% growth inhibitory concentration (GI50) in the series on MKN-45 cells (setting [3]) lay within 50 to 150 nM. The compound further showed an IC50 in the series with Akt of 25 to 50 nM.

Turning to `CC(c1ccc2ncccc2c1)n1nnc2ccc(-c3cnn(CCO)c3)nc21` (stereo not drawn) [Ex 164, 2-(4-(3-(1-(Quinolin-6-yl)ethyl)-3H-[1,2,3]triazolo[4,5-b]pyridin-5-yl)-1H-pyrazol-1-yl)ethanol], the melting point fell in the range of 188 to 191 °C. At c-Met [1], this compound gave a pIC50 of 6.82 to 7.30. In addition, the GI50 in the series on MKN-45 cells (setting [3]) lay within 50 to 150 nM.

`C[C@@H](c1ccc2ncccc2c1)n1nnc2ccc(-c3ccc(C(N)=O)c(Cl)c3)nc21` [Ex 221, (−)-2-chloro-4-(3-(1-(quinolin-6-yl)ethyl)-3H-[1,2,3]triazolo[4,5-b]pyridin-5-yl) benzamide] registered a GI50 in the series on MKN-45 cells (setting [3]) not above 50 nM. Besides, the inhibition at 0.1 µM in the series with MKN-45 cells (setting [4]) is 50 to 75%. On Met kinase, this compound gave an inhibition at 1 µM of 75 to 100% and a pIC50 of 7.00 to 7.30.

The compound `C[C@H](c1ccc2ncccc2c1)n1nnc2ccc(-c3ccc(C(N)=O)c(Cl)c3)nc21` [Ex 222, (+)-2-chloro-4-(3-(1-(quinolin-6-yl)ethyl)-3H-[1,2,3]triazolo[4,5-b]pyridin-5-yl) benzamide] returned an inhibition at 0.1 µM with MKN-45 cells (setting [4]) of 25 to 50%. Further, on Met kinase, the inhibition at 1 µM was 50 to 75% and the pIC50 was 6.00 to 6.60.

The values are drawn from patent US10590129B2 (Incozen Therapeutics Pvt. Ltd., priority 2010, dated 2020).
